Assay results from patent US20210393745A1, “OLIGOMER EXTENDED INSULIN-FC CONJUGATES AND THEIR MEDICAL USE” (Novo Nordisk A/S, priority 2018, published 2021).

What was measured:
[1] = biological target: T1, membrane-associated human IR-A (Homo sapiens, UniProt P06213); test: Insulin receptor affinity on membrane associated receptors (SPA), IR-A; format: binding; details: relative to human insulin
T1 construct: expressed in transfected cells; host or cells: BHK cells, pZem219B vector, plasma membrane preparation
T1 sequence (P06213 28-1370 isoform P06213-2 limits assumed): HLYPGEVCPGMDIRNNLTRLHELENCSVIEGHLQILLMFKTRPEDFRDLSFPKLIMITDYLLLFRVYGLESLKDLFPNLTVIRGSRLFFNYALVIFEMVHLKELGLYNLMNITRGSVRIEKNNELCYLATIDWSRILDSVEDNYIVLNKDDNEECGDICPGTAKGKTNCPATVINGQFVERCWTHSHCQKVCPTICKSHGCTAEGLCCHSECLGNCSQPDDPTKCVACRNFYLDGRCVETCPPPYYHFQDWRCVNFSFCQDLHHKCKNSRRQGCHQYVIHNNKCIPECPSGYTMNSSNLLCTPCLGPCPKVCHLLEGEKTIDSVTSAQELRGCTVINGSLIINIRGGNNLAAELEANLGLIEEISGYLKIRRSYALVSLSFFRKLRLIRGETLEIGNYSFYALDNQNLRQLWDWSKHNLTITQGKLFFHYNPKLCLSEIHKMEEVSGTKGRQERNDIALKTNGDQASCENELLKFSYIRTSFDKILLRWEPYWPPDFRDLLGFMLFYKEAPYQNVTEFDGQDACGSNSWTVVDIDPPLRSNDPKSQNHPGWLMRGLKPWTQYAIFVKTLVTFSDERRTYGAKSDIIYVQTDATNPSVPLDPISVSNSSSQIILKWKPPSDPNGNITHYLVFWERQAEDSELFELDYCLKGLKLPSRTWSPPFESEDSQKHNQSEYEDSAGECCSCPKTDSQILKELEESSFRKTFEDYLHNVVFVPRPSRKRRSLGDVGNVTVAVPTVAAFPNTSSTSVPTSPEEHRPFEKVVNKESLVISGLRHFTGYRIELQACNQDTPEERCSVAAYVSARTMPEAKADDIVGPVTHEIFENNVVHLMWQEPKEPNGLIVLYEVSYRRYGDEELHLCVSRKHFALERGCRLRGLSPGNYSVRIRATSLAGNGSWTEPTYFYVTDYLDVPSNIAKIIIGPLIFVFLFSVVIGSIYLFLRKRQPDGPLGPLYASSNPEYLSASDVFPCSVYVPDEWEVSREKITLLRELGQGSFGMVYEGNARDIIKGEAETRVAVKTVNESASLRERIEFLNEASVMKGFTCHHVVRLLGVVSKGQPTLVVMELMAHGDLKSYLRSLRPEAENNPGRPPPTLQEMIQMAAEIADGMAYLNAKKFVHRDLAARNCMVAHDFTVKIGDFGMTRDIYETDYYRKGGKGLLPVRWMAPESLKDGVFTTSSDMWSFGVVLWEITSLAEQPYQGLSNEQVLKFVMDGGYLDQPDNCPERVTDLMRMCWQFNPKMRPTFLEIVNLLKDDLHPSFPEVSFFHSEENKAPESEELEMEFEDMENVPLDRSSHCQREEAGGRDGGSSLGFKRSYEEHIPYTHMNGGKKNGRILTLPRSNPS
T1 sequence (P06213 763-1382 partner limits assumed): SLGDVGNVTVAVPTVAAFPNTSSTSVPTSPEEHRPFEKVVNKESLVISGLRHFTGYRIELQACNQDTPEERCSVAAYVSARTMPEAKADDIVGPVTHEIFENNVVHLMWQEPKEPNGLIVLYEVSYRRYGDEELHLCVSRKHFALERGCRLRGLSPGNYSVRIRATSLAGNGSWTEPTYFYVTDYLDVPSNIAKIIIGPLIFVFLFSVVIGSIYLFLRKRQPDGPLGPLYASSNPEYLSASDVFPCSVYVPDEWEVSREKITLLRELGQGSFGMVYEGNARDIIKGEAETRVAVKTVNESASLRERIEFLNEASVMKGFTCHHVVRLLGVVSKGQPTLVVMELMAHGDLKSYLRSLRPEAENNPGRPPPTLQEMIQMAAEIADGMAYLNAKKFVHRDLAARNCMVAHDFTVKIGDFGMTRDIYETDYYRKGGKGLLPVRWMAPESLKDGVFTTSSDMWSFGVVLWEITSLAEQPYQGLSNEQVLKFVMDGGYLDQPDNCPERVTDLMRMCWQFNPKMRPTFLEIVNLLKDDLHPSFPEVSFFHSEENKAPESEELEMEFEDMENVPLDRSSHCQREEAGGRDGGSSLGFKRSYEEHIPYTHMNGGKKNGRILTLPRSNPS
Procedure: (§1) Membrane-associated human IR and IGF-1R are purified from BHK cells stably transfected with the pZem219B vector containing either the human IR-A, IR-B or IGF-IR insert. BHK cells are harvested and homogenized in ice-cold buffer (25 mM HEPES pH 7.4, 25 mM CaCl2 and 1 mM MgCl2, 250 mg/L bacitracin, 0.1 mM Pefablock). The homogenates are layered on a 41% (w/v) sucrose cushion and centrifuged for 75 minutes at 95000 g at 4° C. The plasma membranes are collected, diluted 1:5 with buffer (as above) and centrifuged again for 45 minutes at 40000 g at 4° C. The pellets are resuspended in a minimal volume of buffer and drawn through a needle (size 23) three times before storage at −80° C. until usage. The relative binding affinity for either of the membrane-associated human IR-A, IR-B or IGF-1R is determined by competition binding in a SPA setup. IR assays are performed in duplicate in 96-well OptiPlates (Perkin-Elmer Life Sciences). Membrane protein is incubated with gentle agitation for 150 minutes at 25° C. with 50 pM [^125IA14Y]-human insulin in a total volume of […] assay buffer (50 mM HEPES, 150 mM NaCl, 5 mM MgSO4, 0.01% Triton X-100, 0.1% (w/v) HSA (Sigma A1887), Complete EDTA-free protease inhibitors), 50 μg of wheat germ agglutinate (WGA)-coated PVT microspheres (GE Healthcare) and increasing concentrations of ligand. Assays are terminated by centrifugation of the plate at 2000 rpm for 2 minutes and bound radioactivity quantified by counting on a TopCount NXT (Perkin-Elmer Life Sciences).
(§2) IGF-1R assays are conducted essentially as for the IR binding assays except that membrane-associated IGF-1R and 50 pM [^125I-Tyr31]-human IGF-1 were employed.

[2] = biological target: T2, membrane-associated human IGF-1R (Homo sapiens, UniProt P08069); test: IGF-1 receptor affinity on membrane associated receptors (SPA); format: binding; details: membrane-associated IGF-1R, relative to human insulin
T2 construct: expressed in transfected cells; host or cells: BHK cells, pZem219B vector, plasma membrane preparation
T2 sequence (P08069 31-736 limits assumed): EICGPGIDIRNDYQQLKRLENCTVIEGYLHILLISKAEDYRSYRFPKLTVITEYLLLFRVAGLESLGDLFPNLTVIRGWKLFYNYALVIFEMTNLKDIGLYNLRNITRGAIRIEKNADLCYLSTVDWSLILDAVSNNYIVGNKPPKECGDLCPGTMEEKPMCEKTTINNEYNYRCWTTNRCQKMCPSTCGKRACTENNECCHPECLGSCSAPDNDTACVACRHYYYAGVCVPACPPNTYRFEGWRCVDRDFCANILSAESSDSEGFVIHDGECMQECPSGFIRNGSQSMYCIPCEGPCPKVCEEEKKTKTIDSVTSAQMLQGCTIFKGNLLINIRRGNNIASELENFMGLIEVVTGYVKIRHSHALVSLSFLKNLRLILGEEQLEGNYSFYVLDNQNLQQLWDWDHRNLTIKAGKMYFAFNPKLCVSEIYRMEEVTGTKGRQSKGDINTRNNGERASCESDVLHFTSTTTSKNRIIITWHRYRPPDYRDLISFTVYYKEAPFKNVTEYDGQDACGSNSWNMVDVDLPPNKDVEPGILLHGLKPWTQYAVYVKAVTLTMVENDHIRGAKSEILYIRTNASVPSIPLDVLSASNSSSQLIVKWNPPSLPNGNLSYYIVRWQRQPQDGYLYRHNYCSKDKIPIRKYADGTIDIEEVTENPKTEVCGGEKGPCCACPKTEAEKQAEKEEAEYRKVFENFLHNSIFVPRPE
T2 sequence (P08069 741-1367 partner limits assumed): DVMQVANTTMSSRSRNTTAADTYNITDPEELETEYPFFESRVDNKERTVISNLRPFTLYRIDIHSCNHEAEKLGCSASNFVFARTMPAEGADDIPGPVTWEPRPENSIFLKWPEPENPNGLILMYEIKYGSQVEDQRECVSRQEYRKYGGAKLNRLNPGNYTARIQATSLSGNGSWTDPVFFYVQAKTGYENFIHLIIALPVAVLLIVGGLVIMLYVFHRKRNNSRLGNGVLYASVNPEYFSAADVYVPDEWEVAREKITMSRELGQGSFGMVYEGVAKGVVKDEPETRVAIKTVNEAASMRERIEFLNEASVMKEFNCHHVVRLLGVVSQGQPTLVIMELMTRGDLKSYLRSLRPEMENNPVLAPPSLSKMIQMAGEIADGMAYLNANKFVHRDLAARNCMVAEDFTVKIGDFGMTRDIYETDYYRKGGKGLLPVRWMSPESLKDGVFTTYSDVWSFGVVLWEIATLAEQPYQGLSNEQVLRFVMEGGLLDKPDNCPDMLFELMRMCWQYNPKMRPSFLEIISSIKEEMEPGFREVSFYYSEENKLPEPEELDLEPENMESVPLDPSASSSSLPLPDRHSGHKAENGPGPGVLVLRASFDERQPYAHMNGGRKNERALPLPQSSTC
Procedure: as §1, §2

[3] = test system: normal Sprague-Dawley rats; test: In vivo PD, blood glucose lowering in normal rats; parameters: species or system Sprague-Dawley rat; details: s.c. 30 nmol/kg, baseline corrected BG up to 10 days, difference from vehicle, mean
Procedure: Insulin-Fc conjugates were tested in vivo by subcutaneous (s.c.) administration to normal and streptozotocin (STZ) treated male Sprague-Dawley (SD) rats.
The rats were dosed s.c. in the neck region with a dose of 30 nmol/kg of the insulin-Fc conjugates. Blood samples for blood glucose and plasma insulin analysis were collected from the tongue vein up to 10 days post dosing. The insulin-Fc concentrations were measured by immuno-assay (LLOQ=1000 pM) and the resulting half-life values after s.c. dosing are shown in Table 4. The PK profiles for normal rats are shown in FIG. 3 and for streptozotocin treated rats in FIG. 6. Blood glucose (BG) was measured using Biosen S Line (EKF) and the BG and baseline corrected BG profiles for normal rats are shown in FIGS. 1 and 2 and for streptozotocin treated rats in FIGS. 4 and 5 respectively.

[4] = Stability study: purity by anionic exchange chromatography; format: physicochemical; details: purity %(5° C.) − purity %(30° C.), 30 μM, pH 7.4
Procedure: (§3) Samples for stability studies were prepared by weighing out 8-10 mg freeze-dried material. The freeze-dried material was solubilized to […] in a premade solution A (5 mM phophate (pH 7.4), 140 mM NaCl and 70 ppm polysorbate 20). Protein concentration was determined using absorbance at 280 nm using a Nanodrop 2000 (Thermo Fisher Scientific Inc.) and theoretical extinction coefficients. Dilution into solution A was done to reach a final concentration of 30 μM.
Anionic exchange chromatography was performed on an Ultra-Performance Liquid Chromatography system (Waters Acquity H-Class) equipped with a fluorescence detector (Waters Acquity FLR Detector). A Bio SAX column with dimensions 50×4.6 mm from Agilent, kept at 30° C., was used in gradient elution mode. Mobile phase A was 5/95 (v/v), acetonitrile/water with 25 mM BIS-TRIS propane, pH 7.3 and mobile phase B was 5/95 (v/v), acetonitrile/water with 25 mM BIS-TRIS propane and 350 mM NaCl, pH 7.3. Injection volume was 3 μL. The flow rate was kept at 0.5 mL/min with a linear gradient from 10 to 47% B in 3 min followed by a linear gradient from 47 to 55% B in 30 min. Peaks were detected with an emission wavelength of […] and data processing is performed with the EMPOWER 3 software from Waters. Samples were analysed for purity as percent API in relation to all other species.
Reported as Δ purity %=purity %(5° C.)−purity % (30° C.).
Stability of Fc-insulin analogues was evaluated by comparing purity from anion exchange chromatography and formation of high molecular weight products (HMWP) at 5° C. (control) versus 30° C. (heat induced stress). […] The amount of HMWP was decreased by 0.5-2% in the stressed sample versus the control, i.e. some aggregated material has disassociated during incubation at 30° C.

[5] = Stability study: high-molecular weight products by native size-exclusion chromatography; format: physicochemical; details: HMWP %(5° C.) − HMWP %(30° C.), 30 μM, pH 7.4
Procedure: as §3
Native size-exclusion chromatography was performed on a High-Performance Liquid Chromatography system (Waters Alliance) equipped with a UV/Vis detector (Waters 2489 UV/Vis detector). A Waters XBridge BEH 200 Å, 3.5 μm column with dimensions 7.8×300 mm, kept at 30° C., was used. The mobile phase was 50 mM sodium phosphate (pH 7.0), 50 mM NaCl, 5% isopropyl alcohol (v/v). Injection volume was 5 μL. The flow rate was kept at 0.5 mL/min. Peaks were detected using absorbance at 215 nm and data processing is performed with the EMPOWER 3 software from Waters. Samples were analysed for high molecular weight products (HMWP) by relating the total integral of material eluting before main peak with main monomeric peak. In all chromatograms, full baseline separation was observed. […]
Stability of Fc-insulin analogues was evaluated by comparing purity from anion exchange chromatography and formation of high molecular weight products (HMWP) at 5° C. […]

## (A14E, A21G, A22(GQEP)11, A66G, A67Q, A68E, A69K^, A70P, B16H, B25H, B29R, desB30 human insulin)/(226A, 227G, 228P, 234A, 235K, 297E, 315Q, 384Q, des447 hIgG4-Fc(226-447))3,5-bis[(2-acetyl)amino]benzoyl Conjugate [Example 5.2]
[1]
  hIR-A mem Rel. aff. (%): 1.27%
[2]
  IGF1R mem Rel. aff. (%): 0.10%
[3]
  AOCBG normal rat: 364 mM·h
[4]
  Δ purity: 6.7%
[5]
  Δ HMWP %: −0.63%

## (A14E, A21G, A22(GQEP)12, A70K^, A71P, B25H, B29R, desB30 human insulin)/(226A, 227G, 228P, 234A, 235K, 297E, 315Q, 384Q, des447 hIgG4-Fc(226-447))3,5-bis[(2-acetyl)amino]benzoyl Conjugate [Example 5.1]
[1]
  hIR-A mem Rel. aff. (%): 2.97%
[2]
  IGF1R mem Rel. aff. (%): 0.91%
[3]
  AOCBG normal rat: 251 mM·h
[4]
  Δ purity: 3.3%
[5]
  Δ HMWP %: −2.17%
